This is an account of results in patent publication US7018999B2, “Methods for the treatment and prevention of pain” (Cephalon, Inc., priority 2001, dated 2006).

In the assay the test system is formalin-induced behavioral response. Kind of assay: formalin-induced behavioral response model (flinching/shaking, licking/biting; phase I and phase II).
[1] abbreviates: dose 3 mg/kg subcutaneously two hours prior to formalin administration.

SMILES strings stand for the structures.

As for `CC(C)Oc1ccc2c(c1)CCc1c-2c2c(c3c4ccccc4n(CCO)c13)CNC2=O` [IX], the “% Inhibition of Phase II” value under setting [1] is 37 ± 3%.

Take `CCOCc1ccc2c(c1)c1c3c(c4c(c1n2CCCO)Cc1ccccc1-4)C(=O)NC3` [XV]: the “% Inhibition of Phase II” value (dose 10 mg/kg subcutaneously two hours prior to formalin administration) is recorded as 19 ± 3%. On to `CC(C)Oc1ccc2c(c1)CCc1c-2c2c(c3c1[nH]c1ccc(F)cc13)CNC2=O` [VIII], for which the “% Inhibition of Phase II” value (dose 1 mg/kg subcutaneously two hours prior to formalin administration) came out at 29 ± 4%. Take `COc1ccc2c(c1)Cc1c-2c2c(c3c4ccccc4n(CCO)c13)CNC2=O` [XVI]: the “% Inhibition of Phase II” value under setting [1] is 22 ± 6%.

For the compound `C[C@]1(O)C[C@H]2O[C@]1(C)n1c3ccccc3c3c4c(c5c6ccccc6n2c5c31)C(=O)NC4` [XIII], the “% Inhibition of Phase II” value under setting [1] was found to be 29 ± 5%. Take `O=C1NCc2c1c1c3c4c2c2ccccc2n4C2CC[C@H](O2)C3c2ccccc2-1` (stereo partly drawn) [XIV]: the “% Inhibition of Phase II” value under setting [1] was determined as 34 ± 3%.
